# Reference: paper PMC5945292 (Biochemistry, 2013)
# Assays:
# Type in all cases: binding
# cytochrome P450 BM-3 [1] = biological target: T1, cytochrome P450 BM-3 (Priestia megaterium, UniProt P14779); experiment: crystal structure at […] Å
# T1 sequence (P14779 1-1049): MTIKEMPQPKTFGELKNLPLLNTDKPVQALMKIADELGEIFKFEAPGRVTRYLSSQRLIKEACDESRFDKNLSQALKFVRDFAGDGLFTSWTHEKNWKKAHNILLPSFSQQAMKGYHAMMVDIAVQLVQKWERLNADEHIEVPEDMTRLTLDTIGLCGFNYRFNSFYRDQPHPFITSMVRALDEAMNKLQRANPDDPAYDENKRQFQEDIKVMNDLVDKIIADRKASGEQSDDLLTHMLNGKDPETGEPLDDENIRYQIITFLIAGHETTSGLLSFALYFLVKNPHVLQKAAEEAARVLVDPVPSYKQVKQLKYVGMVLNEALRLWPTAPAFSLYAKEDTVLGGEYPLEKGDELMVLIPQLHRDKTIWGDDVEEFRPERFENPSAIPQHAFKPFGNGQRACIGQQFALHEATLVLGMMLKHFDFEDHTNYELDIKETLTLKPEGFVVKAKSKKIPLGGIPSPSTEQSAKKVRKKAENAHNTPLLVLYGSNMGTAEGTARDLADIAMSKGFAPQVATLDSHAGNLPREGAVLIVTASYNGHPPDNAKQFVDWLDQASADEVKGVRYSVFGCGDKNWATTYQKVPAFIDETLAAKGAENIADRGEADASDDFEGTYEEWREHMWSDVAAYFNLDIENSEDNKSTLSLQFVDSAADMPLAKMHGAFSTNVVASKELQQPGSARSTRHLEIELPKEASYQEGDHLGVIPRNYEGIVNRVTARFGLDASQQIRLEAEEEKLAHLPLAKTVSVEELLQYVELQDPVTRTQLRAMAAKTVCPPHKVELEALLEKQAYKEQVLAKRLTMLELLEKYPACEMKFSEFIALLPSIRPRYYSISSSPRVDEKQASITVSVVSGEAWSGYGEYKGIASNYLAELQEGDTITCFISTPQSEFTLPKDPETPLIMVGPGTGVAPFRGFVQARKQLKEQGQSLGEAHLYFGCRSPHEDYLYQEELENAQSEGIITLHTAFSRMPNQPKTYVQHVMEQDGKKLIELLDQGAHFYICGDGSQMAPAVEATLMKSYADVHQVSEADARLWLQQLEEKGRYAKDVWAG
# cytochrome P450 BM-3 [2] = biological target: cytochrome P450 BM-3 (Priestia megaterium, UniProt P14779, R48Q); experiment: spectral
# cytochrome P450 BM-3 [3] = biological target: cytochrome P450 BM-3 (Priestia megaterium, UniProt P14779, R48K); experiment: spectral
# Sequence of cytochrome P450 BM-3 (Priestia megaterium, UniProt P14779, R48K) (P14779 whole entry R48K): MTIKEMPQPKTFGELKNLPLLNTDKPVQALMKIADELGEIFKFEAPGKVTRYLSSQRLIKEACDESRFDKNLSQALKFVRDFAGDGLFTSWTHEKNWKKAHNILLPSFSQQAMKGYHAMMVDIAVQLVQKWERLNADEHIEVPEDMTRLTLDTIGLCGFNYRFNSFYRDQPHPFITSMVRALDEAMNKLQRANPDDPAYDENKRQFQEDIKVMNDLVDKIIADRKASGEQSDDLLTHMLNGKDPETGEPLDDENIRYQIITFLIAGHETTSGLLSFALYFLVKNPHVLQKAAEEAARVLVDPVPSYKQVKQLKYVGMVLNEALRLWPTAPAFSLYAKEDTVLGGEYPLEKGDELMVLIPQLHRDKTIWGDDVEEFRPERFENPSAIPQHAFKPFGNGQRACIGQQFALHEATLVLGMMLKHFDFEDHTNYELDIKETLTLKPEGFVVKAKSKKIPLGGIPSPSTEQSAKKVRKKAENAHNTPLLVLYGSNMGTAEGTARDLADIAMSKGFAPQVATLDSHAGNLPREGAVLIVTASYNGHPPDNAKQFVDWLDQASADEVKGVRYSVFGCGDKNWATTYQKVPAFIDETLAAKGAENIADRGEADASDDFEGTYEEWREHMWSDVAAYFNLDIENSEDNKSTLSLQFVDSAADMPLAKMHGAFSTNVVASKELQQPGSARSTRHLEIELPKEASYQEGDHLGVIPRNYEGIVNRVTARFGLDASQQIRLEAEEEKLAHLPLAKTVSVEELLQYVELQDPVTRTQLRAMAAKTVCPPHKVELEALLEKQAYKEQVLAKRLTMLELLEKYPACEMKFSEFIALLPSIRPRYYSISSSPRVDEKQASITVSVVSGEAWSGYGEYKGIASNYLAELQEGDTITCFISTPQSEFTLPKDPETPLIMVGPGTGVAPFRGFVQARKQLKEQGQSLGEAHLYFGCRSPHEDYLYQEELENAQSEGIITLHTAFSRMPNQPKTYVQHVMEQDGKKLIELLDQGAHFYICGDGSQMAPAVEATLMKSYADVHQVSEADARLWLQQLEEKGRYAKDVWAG
# Sequence of cytochrome P450 BM-3 (Priestia megaterium, UniProt P14779, R48Q) (P14779 whole entry R48Q): as the sequence (P14779 whole entry R48K) above, with K48Q counted along it
structure (smiles),measurement,setting,value
"CCCCCCCCCCCCCCCC(=O)NCC(=O)O [NPG, N-palmitoylglycine]",Kd,cytochrome P450 BM-3 [1],0.37 ± 0.05 µM
same,Kd,cytochrome P450 BM-3 [2],7 ± 0.7 µM
same,Kd,cytochrome P450 BM-3 [3],1.2 ± 0.1 µM
